In ChEMBL document CHEMBL1154698, “Discovery of 3-aryl-4-isoxazolecarboxamides as TGR5 receptor agonists” (J Med Chem, 2009):
Values after ≈ are worked out from the molar mass of the structure shown. Active and inactive are the calls of the source. No cut-off for these calls is given here.

Legend:
U2OS = experiment: Increase in MRE/CRE-driven gene expression in human U2OS cells by luciferase reporter gene assay; format: functional, cell-based
[1] = Aqueous solubility of the compound; format: physicochemical; conditions: buffer
[2] = Permeability in artificial membrane assay; format: ADME, cell membranes
[3] = target: T1, G-protein coupled bile acid receptor 1 (Rattus norvegicus, UniProt Q80T02); experiment: Agonist activity at rat TGR5 expressed in melanophores assessed as melanosome dispersion by melanophore assay; format: functional
T1 sequence (Q80T02 whole entry): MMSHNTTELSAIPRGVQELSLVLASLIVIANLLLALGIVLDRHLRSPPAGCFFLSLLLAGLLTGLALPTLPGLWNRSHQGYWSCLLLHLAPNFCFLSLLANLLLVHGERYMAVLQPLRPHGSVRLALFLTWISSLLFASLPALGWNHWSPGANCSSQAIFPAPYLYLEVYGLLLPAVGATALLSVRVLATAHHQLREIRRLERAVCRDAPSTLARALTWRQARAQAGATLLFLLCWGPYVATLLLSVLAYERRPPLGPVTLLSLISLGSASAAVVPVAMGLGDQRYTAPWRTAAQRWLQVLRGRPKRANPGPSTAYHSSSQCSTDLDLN

[4] = Agonist activity at canine TGR5 expressed in melanophores assessed as melanosome dispersion by melanophore assay; format: functional, Canis lupus familiaris
Melanophore = experiment: Induction of melanosome dispersion in melanophores; format: functional, cell-based; conditions: Xenopus laevis
[5] = Half life in CD1 rat at 2.5 mg/kg, iv or 5 mg/kg, po; format: ADME, organism-based; conditions: in vivo
[6] = Clearance in CD1 rat at 2.5 mg/kg, iv or 5 mg/kg, po; format: ADME, organism-based; conditions: in vivo
[7] = Volume of distribution at steady state in CD1 rat at 2.5 mg/kg, iv or 5 mg/kg, po; format: ADME, organism-based; conditions: in vivo, read-out: Vdss
[8] = Oral bioavailability in CD1 rat 5 mg/kg; format: ADME, organism-based; conditions: in vivo
[9] = Intrinsic clearance in rat hepatocytes; format: ADME, cell-based, Liver, Hepatocyte
[10] = Intrinsic clearance in dog hepatocytes; format: ADME, cell-based, Canis lupus familiaris, Liver, Hepatocyte
Cytochrome P450 2C9 = Cytochrome P450 2C9 (Homo sapiens, UniProt P11712); experiment: Inhibition of CYP2C9; format: ADME
Chain of Cytochrome P450 2C9 (P11712 whole entry): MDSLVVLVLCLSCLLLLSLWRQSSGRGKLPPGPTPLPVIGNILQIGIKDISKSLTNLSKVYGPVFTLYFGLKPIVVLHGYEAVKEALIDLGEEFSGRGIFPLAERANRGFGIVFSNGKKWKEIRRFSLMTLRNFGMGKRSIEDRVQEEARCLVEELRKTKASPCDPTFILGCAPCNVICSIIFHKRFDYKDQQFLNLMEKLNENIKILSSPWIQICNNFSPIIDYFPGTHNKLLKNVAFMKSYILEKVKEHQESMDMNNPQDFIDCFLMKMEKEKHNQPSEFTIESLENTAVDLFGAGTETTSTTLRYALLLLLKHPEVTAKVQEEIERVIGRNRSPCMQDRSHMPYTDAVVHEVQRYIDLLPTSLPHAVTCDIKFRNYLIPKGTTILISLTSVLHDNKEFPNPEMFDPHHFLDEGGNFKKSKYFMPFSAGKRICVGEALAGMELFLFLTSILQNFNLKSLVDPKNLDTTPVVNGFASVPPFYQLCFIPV

Cytochrome P450 2D6 = Cytochrome P450 2D6 (Homo sapiens, UniProt P10635); experiment: Inhibition of CYP2D6; format: ADME
Chain of Cytochrome P450 2D6 (P10635 whole entry): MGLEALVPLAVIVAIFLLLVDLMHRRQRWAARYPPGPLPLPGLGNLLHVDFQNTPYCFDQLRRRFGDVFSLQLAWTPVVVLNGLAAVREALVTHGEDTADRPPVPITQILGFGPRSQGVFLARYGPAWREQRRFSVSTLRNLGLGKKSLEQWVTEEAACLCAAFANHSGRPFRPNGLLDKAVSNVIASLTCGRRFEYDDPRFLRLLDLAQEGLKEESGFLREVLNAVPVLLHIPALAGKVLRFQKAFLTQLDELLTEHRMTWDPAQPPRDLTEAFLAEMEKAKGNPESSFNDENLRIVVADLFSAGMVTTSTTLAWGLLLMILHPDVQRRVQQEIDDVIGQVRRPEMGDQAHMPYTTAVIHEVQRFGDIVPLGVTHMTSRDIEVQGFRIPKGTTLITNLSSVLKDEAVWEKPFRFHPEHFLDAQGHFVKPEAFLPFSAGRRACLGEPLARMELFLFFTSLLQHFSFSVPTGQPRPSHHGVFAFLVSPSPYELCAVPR

Monocyte = experiment: Inhibition of LPS-stimulated TNFalpha secretion in human primary monocytes; format: functional, cell-based
Canis familiaris [11] = experiment: Decrease in portal vein glucose levels in intrajejeunally dosed conscious Beagle dog at 1 mg.kg co-administered with glucose challenge; format: functional, organism-based; conditions: Canis lupus familiaris
Canis familiaris [12] = experiment: Increase in GLP1 secretion in hepatic portal vein of intrajejeunally dosed conscious Beagle dog at 1 mg.kg co-administered with glucose challenge; format: functional, organism-based; conditions: Canis lupus familiaris
[13] = Oral bioavailability in CD1 rat at 30 mg/kg; format: ADME, organism-based; conditions: in vivo
[14] = Volume of distribution at steady state in CD1 rat at 3 mg/kg, iv or 30 mg/kg, po; format: ADME, organism-based; conditions: in vivo, read-out: Vdss
[15] = Clearance in CD1 rat at 3 mg/kg, iv or 30 mg/kg, po; format: ADME, organism-based; conditions: in vivo
[16] = Half life in CD1 rat at 3 mg/kg, iv or 30 mg/kg, po; format: ADME, organism-based; conditions: in vivo
[17] = Half life in dog at 3 mg/kg, iv or 30 mg/kg, po; format: ADME, organism-based, Canis lupus familiaris; conditions: in vivo
[18] = Clearance in dog at 3 mg/kg, iv or 30 mg/kg, po; format: ADME, organism-based, Canis lupus familiaris; conditions: in vivo
[19] = Volume of distribution at steady state in dog at 3 mg/kg, iv or 30 mg/kg, po; format: ADME, organism-based, Canis lupus familiaris; conditions: in vivo, read-out: Vdss
[20] = Oral bioavailability in dog at 30 mg/kg; format: ADME, organism-based, Canis lupus familiaris; conditions: in vivo

Cc1onc(-c2ccccc2Cl)c1C(=O)N(C)c1ccc(Cl)cc1 showed an EC50 (U2OS) of over 50.1 µM, a solubility [1] of 246 µM (≈ 88.9 µg/mL) and a permeability [2] of 422 nanometer/sec. It also gave an EC50 [3] of 2 µM, a pEC50 [4] of 7.2 and an EC50 (Melanophore) of 20 µM. For the same compound, the half-life [5] was 6.6 h, the clearance [6] was 85 mL/min/kg and the Vd [7] was 7.1 L/kg. For the same compound, the bioavailability [8] was 1%, the CLint [9] was 48 mL/min/g and the CLint [10] was 90 mL/min/g. For the same compound, the IC50 (Cytochrome P450 2C9) was over 10 µM, the IC50 (Cytochrome P450 2D6) was over 10 µM and the IC50 (Monocyte) was 0.158 µM. For the same compound, the Activity (Canis familiaris [11]) was “Active” and the Activity (Canis familiaris [12]) was “Active”.

CCN(C(=O)c1c(-c2ccccc2Cl)noc1C)c1cccc(Cl)c1 showed a solubility [1] of 134 µM (≈ 50.3 µg/mL) and a permeability [2] of 310 nanometer/sec.

Compound Cc1ccc(N(C)C(=O)c2c(-c3ccccc3Cl)noc2C)cc1Cl has a solubility [1] of 112 µM (≈ 42 µg/mL), a permeability [2] of 257 nanometer/sec and a bioavailability [13] of under 1%. For the same compound, the Vd [14] was 40 L/kg, the clearance [15] was 148 mL/min/kg and the half-life [16] was 8.7 h. For the same compound, the half-life [17] was 5.2 h, the clearance [18] was 39 mL/min/kg and the Vd [19] was 8.6 L/kg. The bioavailability [20] was 0.3%, the CLint [9] was 54 mL/min/g and the CLint [10] was 111 mL/min/g.
